What was measured:
B-Raf kinase = molecular target: T1, B-Raf kinase (Homo sapiens, UniProt P15056); assay: Biochemical assay for B-Raf (coupled pyruvate kinase/lactate dehydrogenase); conditions: Table 1, inhibition of biochemical activity; read-out: BRAF
T1 construct: purchased Sigma

C-Raf kinase = molecular target: T2, C-Raf kinase (Homo sapiens, UniProt P04049, Y340D/Y341D); assay: Biochemical assay for C-Raf (coupled pyruvate kinase/lactate dehydrogenase); conditions: Table 1, inhibition of biochemical activity; read-out: CRAF
T2 construct: C-Raf residues 306-end; Y340D, Y341D with N-; purchased Sigma
T2 sequence (P04049 307-648 Y340D/Y341D): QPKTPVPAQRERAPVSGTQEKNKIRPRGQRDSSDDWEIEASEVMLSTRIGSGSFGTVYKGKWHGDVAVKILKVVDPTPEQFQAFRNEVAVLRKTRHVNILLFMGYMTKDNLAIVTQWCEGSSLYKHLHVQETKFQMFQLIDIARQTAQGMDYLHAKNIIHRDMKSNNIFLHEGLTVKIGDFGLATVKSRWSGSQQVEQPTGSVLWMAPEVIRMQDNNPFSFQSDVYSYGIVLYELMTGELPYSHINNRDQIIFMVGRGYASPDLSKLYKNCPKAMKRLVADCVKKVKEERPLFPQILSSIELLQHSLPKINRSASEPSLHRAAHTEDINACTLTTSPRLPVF

MiaPaca-2 cells = assay: MiaPaca-2 cell proliferation assay (resazurin); format: cell-based; conditions: Homo sapiens, MIA PaCa-2; Table 2, inhibition of cell proliferation; read-out: MiaPaca-2
Description: MiaPaca-2 cells (catalog #CRL-1420) are obtained from the American Type Culture Collect (ATTC, Manassas, VA). Briefly, cells were grown in DMVEM supplemented with […] fetal bovine serum (Invitrogen, Carlsbad, CA), 2.5% New Zealand sourced horse serum and 1% Penicillin/Streptomycin/L-Glutamine at 37° C., […], and […]. Cells are expanded until reaching […] at which point they are sub-cultured or harvested for assay use. For assays completed in 96-well plates, a serial dilution of test compound is dispensed into a 96-well black clear bottom plate in triplicate. Three thousand cells are added per well in 200 μL complete growth medium in the 96-well plate. Plates are incubated for 67 to 72 h at 37° C., 5% CO2, and 95% humidity. At the end of the incubation, 40 μL of a […] solution of resazurin (Sigma, St. Louis, MO) in PBS is added to each well of the plate and plates are incubated for an additional 5 to 6 h at 37° C., 5% CO2, and 95% humidity. For 384-well assays, a threefold, 8-point serial dilution of compound was spotted column wise into a 384 well black, clear bottom, tissue culture treated plate using the Beckman Coulter Echo 650. Likewise, a threefold, 8-point serial dilution of cobimetinib was spotted row wise into the 384 well black, clear bottom plate containing compound. DMSO concentration was constant across all wells at 0.4%. Seven hundred fifty cells are added per well in 50 μL complete growth medium in each 384-well plate. Plates are incubated for 67 to 72 h at 37° C., 5% CO2, and 95% humidity. At the end of the incubation, 10 μL of a 440 μM solution of resazurin (Sigma, St. Louis, MO) in PBS is added to each well of the plate and plates are incubated for an additional 4 to 6 h at 37° C., 5% CO2, and 95% humidity. Plates are read on a Synergy2 or equivalent reader (Biotek, Winooski VT) using an excitation of 540 nm and an emission of 600 nm. Data is analyzed using Prism software (Graphpad, San Diego, CA) to calculate IC50 values.

HCT-116 cells = assay: HCT-116 cell proliferation assay (resazurin); format: cell-based; conditions: Homo sapiens; Table 2, inhibition of cell proliferation; read-out: HCT-116
Description: HCT-116 cells (catalog #CCL-247) are obtained from the American Type Culture Collect (ATCC, Manassas, VA). Briefly, cells are grown in McCoy's 5A supplemented with 10% characterized fetal bovine serum (Invitrogen, Carlsbad, CA) and 1% Penicillin/Streptomycin/L-Glutamine at 37° C., 5% CO2, and 95% humidity. Cells are expanded until reaching 70-95% confluency at which point they are sub-cultured or harvested for assay use. A serial dilution of test compound is dispensed into a 384-well black clear bottom plate in triplicate. 375 cells are added per well in 50 μL complete growth medium in the 384-well plate. Plates are incubated for 67 to 72 h at 37° C., 5% CO2, and 95% humidity. At the end of the incubation, 40 μL of a […] solution of resazurin (Sigma, St. Louis, MO) in PBS is added to each well of the plate and plates are incubated for an additional 4 to 5 h at 37° C., 5% CO2, and 95% humidity. Plates are read on a Synergy2 or equivalent reader (Biotek, Winooski, VT) using an excitation of 540 nm and an emission of 600 nm. Data is analyzed using Prism software (Graphpad, San Diego, CA) to calculate IC50 values.

HPAF-II cells = assay: HPAF-II cell proliferation assay (resazurin); format: cell-based; conditions: Homo sapiens; Table 2, inhibition of cell proliferation; read-out: HPAF-II
Description: (§1) HPAF-II cells (catalog #CRL-1997) are obtained from the American Type Culture Collect (ATCC, Manassas, VA). Briefly, cells are grown in Minimum Essential Media supplemented with 10% characterized fetal bovine serum (Invitrogen, Carlsbad, CA) and 1% Penicillin/Streptomycin/L-Glutamine at 37° C., 5% CO2, and 95% humidity. Cells are expanded until reaching 70-95% confluency at which point they are sub-cultured or harvested for assay use. A serial dilution of test compound is dispensed into a 384-well black clear bottom plate in triplicate. 750 cells are added per well in 50 μL complete growth medium in the 384-well plate. Plates are incubated for 115 to 120 h at 37° C., 5% CO2, and 95% humidity. At the end of the incubation, 40 μL of a […] solution of resazurin (Sigma, St. Louis, MO) in PBS is added to each well of the plate and plates are incubated for an additional 18 to 24 h at 37° C., 5% CO2, and 95% humidity. Plates are read on a Synergy2 or equivalent reader (Biotek, Winooski, VT) using an excitation of 540 nm and an emission of 600 nm. Data is analyzed using Prism software (Graphpad, San Diego, CA) to calculate IC50 values.

Pa16c cells = assay: Pa16c cell proliferation assay (resazurin); format: cell-based; conditions: Table 2, inhibition of cell proliferation
Description: as §1, with “Pa16c” for “HPAF-II”, “cells” for “cells (catalog #CRL-1997)”, “Dr. Channing Der, University of North Carolina at Chapel Hill.” for “the American Type Culture Collect (ATCC, Manassas, VA).”, “Dulbecco's Modified Eagle Medium” for “Minimum Essential Media”, “67” for “115”, “72” for “120”

T1 sequence (P15056 416-766): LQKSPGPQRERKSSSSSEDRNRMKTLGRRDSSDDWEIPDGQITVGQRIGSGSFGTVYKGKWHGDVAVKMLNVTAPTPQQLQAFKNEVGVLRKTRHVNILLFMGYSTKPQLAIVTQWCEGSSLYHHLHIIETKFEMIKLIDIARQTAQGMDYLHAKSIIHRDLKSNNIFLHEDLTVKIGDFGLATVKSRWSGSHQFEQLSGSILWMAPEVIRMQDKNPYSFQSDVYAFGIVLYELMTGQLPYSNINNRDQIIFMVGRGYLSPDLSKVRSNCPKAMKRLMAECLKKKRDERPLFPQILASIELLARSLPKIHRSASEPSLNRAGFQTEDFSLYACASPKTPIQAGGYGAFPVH

Compound | IC50 (B-Raf kinase) [µM] | IC50 (C-Raf kinase) [µM] | IC50 (MiaPaca-2 cells) [µM] | IC50 (HCT-116 cells) [µM] | IC50 (HPAF-II cells) [µM] | IC50 (Pa16c cells) [µM]
CNC(=O)c1cc(-c2nc(NCCO)cc(-c3cc(NC(=O)c4cc(C(F)(F)F)cnn4)ccc3C)n2)ccn1 [Example 23] | < 0.1 | < 0.1 | 1 to 10 | 0.5 to 1 | 1 to 10 | 1 to 10
CNC(=O)c1cc(-c2cncc(-c3cc(NC(=O)c4cc(C5CC5)cnn4)ccc3C)c2)ncn1 [Example 24] | < 0.1 | < 0.1 | 1 to 10 | 1 to 10 | 1 to 10 | 1 to 10
CNC(=O)c1cc(-c2cc(-c3cc(NC(=O)c4cc(C(F)(F)F)cnn4)ccc3C)nc(N[C@H](C)CO)n2)ccn1 [Example 25] | < 0.1 | < 0.1 | 0.1 to 0.5 | 0.1 to 0.5 | 0.1 to 0.5 | 1 to 10
CNC(=O)c1cc(-c2nc(N[C@H](C)CO)cc(-c3cc(NC(=O)c4cc(C(F)(F)F)cnn4)ccc3C)n2)ccn1 [Example 28] | < 0.1 | < 0.1 | 1 to 10 | 1 to 10 | 1 to 10 | 1 to 10
CNC(=O)c1cc(-c2cc(-c3cc(NC(=O)c4cc(C(F)(F)F)cnn4)ccc3C)cc(N[C@H](C)CO)n2)ccn1 [Example 29] | < 0.1 | < 0.1 | 0.1 to 0.5 | < 0.1 | 0.1 to 0.5 | 0.1 to 0.5
CNC(=O)c1cc(-c2cncc(-c3cc(NC(=O)c4cc(C(C)(F)F)cnn4)ccc3C)c2)ccn1 [Example 30] | < 0.1 | < 0.1 | 1 to 10 | 0.5 to 1 | 1 to 10 | 1 to 10
CNC(=O)c1cc(-c2cc(-c3cc(NC(=O)c4cc(C(C)(F)F)cnn4)ccc3C)ccn2)ccn1 [Example 31] | < 0.1 | < 0.1 | 0.1 to 0.5 | 0.1 to 0.5 | 0.1 to 0.5 | 0.1 to 0.5
CNC(=O)c1cc(-c2cc(-c3cc(NC(=O)c4cc(C5CC5)cnn4)ccc3C)cc(N[C@H](C)CO)n2)ccn1 [Example 32] | < 0.1 | < 0.1 | 0.1 to 0.5 | 0.1 to 0.5 | 0.1 to 0.5 | 0.1 to 0.5
CNC(=O)c1cc(-c2cc(NCCO)nc(-c3cc(NC(=O)c4cc(C(F)(F)F)cnn4)ccc3C)n2)ccn1 [Example 33] | 0.1 to 0.5 | < 0.1 | 1 to 10 | 1 to 10 | 1 to 10 | 1 to 10
CNC(=O)c1cc(-c2cc(-c3cc(NC(=O)c4cc(C5CC5)cnn4)ccc3C)cc(OCCO)n2)ccn1 [Example 34] | < 0.1 | < 0.1 | 0.5 to 1 | 0.1 to 0.5 | 0.5 to 1 | 0.1 to 0.5
